“And” between values parts separate entries of the source, which are not always exact repeats. Identical values can stand only once. Like-named read-outs stand apart in the source and are kept apart here.
Tests used:
RXR-VDR heterodimer = molecular target: T1, RXR-VDR heterodimer (Homo sapiens, UniProt P11473); experiment: RXR-VDR heterodimerization assay (SaOS-2 cells); format: cell-based; conditions: Gal4-RXR / VP16-VDR-LBD luciferase reporter, Table 1
T1 construct: Add the Gal4-RXR-DEF and VP16-VDR-LBD; expressed in transfected cells; host or cells: SaOS-2 cells
T1 sequence (P11473 127-423 limits assumed): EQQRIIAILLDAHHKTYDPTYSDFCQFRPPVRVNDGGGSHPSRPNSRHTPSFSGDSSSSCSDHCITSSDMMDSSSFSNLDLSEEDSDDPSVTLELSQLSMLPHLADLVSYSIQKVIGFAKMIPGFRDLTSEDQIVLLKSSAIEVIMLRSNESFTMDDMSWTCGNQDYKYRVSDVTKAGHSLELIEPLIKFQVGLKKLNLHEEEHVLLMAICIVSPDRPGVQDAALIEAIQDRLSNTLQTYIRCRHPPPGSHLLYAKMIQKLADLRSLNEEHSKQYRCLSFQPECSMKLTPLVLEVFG
T1 sequence (P19793 201-462 partner limits assumed): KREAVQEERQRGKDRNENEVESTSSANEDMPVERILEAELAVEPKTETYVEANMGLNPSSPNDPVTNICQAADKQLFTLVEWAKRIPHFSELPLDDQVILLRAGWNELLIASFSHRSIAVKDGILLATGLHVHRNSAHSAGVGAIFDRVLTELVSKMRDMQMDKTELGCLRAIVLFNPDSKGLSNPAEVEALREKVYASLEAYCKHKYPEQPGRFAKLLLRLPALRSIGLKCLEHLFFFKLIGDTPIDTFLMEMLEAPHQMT
Procedure: 1. The RXR-VDR HeterodimerAssay:
This assay provides the VDR activity of a test compound.
(1) Materials and Method for RXR-VDR Heterodimerization Assay:
Luciferase Assay Reagent: • Use Steady-Glo Luciferase Reagent from Promega (Cat #E2550) Consists of: a. E2533 Assay Substrate, lyopholized product and b. E2543 Assay Buffer. • Thaw at room temperature • Store Cell Harvesting Aspirate media from culture flask, rinse cells with HBSS and aspirate. Add trypsin and incubate. When cells appear detached, resuspend cells in growth media. Transfer into a new flask with fresh growth media for passaging the cells. Plate well plates and two extra plates A. Cell Count Mix the cell suspension using pipette Use Hematocytometer to count the cells Load cell suspension onto the hemocytometer chamber Count cells. […] In sterile flask add cell suspension to plating media. Mix. Add cells/well. Place the cells in the incubator. Cells should be about 75% confluent prior to transfection. DAY 2: Transfection Step 1: DNA and Media Add plain DMEM media to tubes for mixing the DNA Add the Reporter gene pFR-LUC Add the Gal4-RXR-DEF and VP16-VDR-LBD Step 2: FuGENE and Media Prepare plain DMEM media in a ubes for mixing FuGENE Add FuGENE 6 Transfection Reagent Incubate Step 3: FuGENE, DNA and Media Complex Add FuGENE Media complex from step 2 to DNA Media complex from step 1 Incubate Step 4: FuGENE, DNA and Media Complex to-well plate Add FuGENE-DNA-Media complex from step 3 to each plate Incubate. […] Day 4: Luciferase Assay Read the plates after drug treatment Remove part of media from all the wells and leave remainder Add Steady-Glo Luciferase Reagent mixture/wells Incubate Count each well using a Luminescence counter, Top Count NXT by Packard
Set a delay between plates to reduce the background.

VDR = molecular target: T2, VDR (Homo sapiens, UniProt P11473); experiment: Caco-2 cell co-transfection assay (VDR CTF); format: cell-based; conditions: Caco-2 cells, pGal4-VDR-LBD luciferase co-transfection; Table 1
T2 construct: the receptor expression vector pGal4-VDR-LBD (10 ng); expressed in transfected cells; host or cells: Caco-2 cells
T2 sequence (P11473 127-423 limits assumed): T1 sequence (P11473 127-423 limits assumed)
Procedure: 2. The Caco-2 Cell Co-Transfection Assay:
The Caco-2 cell assay is an indicator for the undesirable condition of hypercalcemia. This co-transfection assay is a surrogate assay for in vivo calcemic activity of VDR ligands. […] Preferred assay results are greater than 1000 nM.
(2) Materials and Method for The Caco-2 Cell Assay:
Caco-2 cells, grown in phenol red free, DMEM (Invitrogen, Carlsbad, Calif.) containing 10% charcoal-stripped FCS (Hyclone, Logan, Utah), were transfected with Fugene 6 reagent (Roche Diagnostics, Indianapolis, Ind.). Cells (5000/well) were plated 18 h before transfection in a 96 well plate. The Cells were transfected with Gal4-responsive reporter pFRLuc (150 ng, Stratagene, La Jolla Calif.) and the receptor expression vector pGal4-VDR-LBD (10 ng), along with Fugene 6 reagent (0.2 μl/well). The DNA-Fugene complex was formed by incubating the mixture for 30 min at room temperature. The cells were transfected in triplicate for 5 h, and treated with various concentrations of VDR ligands (form 0.01 nM to 10,000 nM concentration range) 18 h post-transfection. The luciferase activity was quantified using Steady-Glo reagent kit (Promega, Madison, Wis.) as per manufacturer's specifications.

rat osteocalcin promoter = experiment: OCN (osteocalcin) promoter assay; format: cell-based; conditions: Rattus norvegicus, 48 h, RG-15 (ROS 17/2.8) cells, 48 hr treatment; Table 1
Procedure: 3. The OCN (Osteocalcin) Promoter Assay
The OCN Promoter Assay is an indicator and marker for osteoporosis. […] Preferred assay results are less than 50 nM.
(3) Materials and Method for the OCN Promoter Assay:
The activation of osteocalcin by VDR ligands was evaluated in a rat osteoblast-like cell line RG-15 (ROS 17/2.8) stably expressing rat osteocalcin promoter fused with luciferase reporter gene. […] Confluent RG-15 cells maintained in DMEM/F-12 medium (3:1) containing 5% FBS, 300 μg/ml G418 and at 37° C. under 5% CO2/95% air atmosphere were trypsinized (0.25% trypsin) and plated into white opaque 96-well cell culture plates (25000 cells/well). After 24 hr, cells (in DMEM/F-12 medium+2% FBS) were treated with various concentrations of compounds, dissolved in DMSO. The final DMSO concentration remained at 0.01% (v/v). After 48 hr treatment, the medium was removed, cells were lysed with 50 μl of lysis buffer (From Luciferase reporter assay system, Roche Diagnostics, Indianapolis, Ind.) and assayed for luciferase activity using the Luciferase Reporter Gene Assay kit from Boehringer Mannheim as per manufacturer's specifications.

KERtr cells = experiment: Keratinocyte proliferation assay; format: cell-based; conditions: Homo sapiens, 72 h, BrdU incorporation, Table 2, read-out: Kera. Prolif. IC50
Procedure: 5. The Keratinocyte Proliferation Assay
This Assay is indicative for the treatment of psoriasis.
(5) The Keratinocyte Proliferation Assay:
KERtr cells (Human skin keratinocyte transformed with a retrovirus vector, obtained from ATCC) were plated in 96-well flat-bottomed plates (3000 cells/well) in 100 μl keratinocyte serum free medium supplemented with bovine pituitary extract in the absence of EGF (Life Technologies, Rockville, Md.) and incubated at 37° C. for two days. The cells were treated with various concentrations of VDR ligands (ten-fold serial dilution from 10,000 nM to 0.1 nM in triplicate), dissolved in 100 μl keratinocyte serum free medium supplemented with bovine pituitary extract in the absence of EGF and incubated at 37° C. for 72 hr. […] Potency values (IC50) values were determined as the concentration (nM) of compound that elicited a half-maximal response.

IL-10 = experiment: Human IL-10 induction assay in PBMCs; format: cell-based; conditions: PBMC; TPA/PHA treated human PBMCs; Table 2
Source text: 6. The IL-10 Induction Assay
This is an in vitro efficacy assay for psoriasis, abscess and adhesion. Psoriasis involves both keratinocytes and immune cells. IL-10 is a unique cytokine because it is anti-inflammatory and immunosuppressive. This assay tells us whether a VDRM is able to function as an agonist in PBMCs ([…]) or not.
(6) Materials and Method for Human IL-10 Induction Assay:
Isolation of Peripheral Blood Mononuclear Cells (PBMCs):
Stimulation of PBMC: • L. Prepare TPA in DMSO. • M. Dissolve PHA in water. • N. Plate TPA/PHA treated PBMCs in well plates. • O. Incubate.
Sample Collection and Assay: • S. Remove all the cells by centrifugation and assay the supernatant for IL-10 by immunoassay. • T. Perform IL-10 assay using anti-human IL-10 antibody coated beads, as described by the manufacturer (Linco Research Inc., St. Charles, Mo.). (8) CaT1 Assay

DBF mice [1] = experiment: Mouse hypercalcemia assay; conditions: oral gavage for 6 days, serum ionized calcium 6 hours after last dosing; Table 1
Source text: The Mouse Hypercalcemia Assay
(§1) The Mouse Hypercalcemia Assay is a six day hypercalcemia test for toxicity and selectivity.
(§2) (4) Materials and Method for the Mouse Hypercalcemia Assay:
(§3) Weanling, virus-antibody-free, five to six weeks old female DBF mice (Harlan, Indianapolis, Ind.) are used for all the studies. Animals are allowed to acclimate to local vivarium conditions for 2 days. […] The animals then are divided into groups with 4-5 mice per group. Different doses of test compounds prepared in 10% Ethanol and 90% sesame oil are administered to mice orally via gavage for 6 days. 1α-25(OH)2D3 0.5 μg/kg/d was also given to one group of mice as the positive control. […] Raw data of group differences is assessed by analysis of variance (ANOVA) using Fisher's protected least significant difference (PLSD) where the significance level was P<0.05.

DBF mice [2] = conditions: in vivo, po
Source text: The Mouse Hypercalcemia Assay
as §1, §2, §3

| Mouse Hypercal (DBF mice [2]) | Structure (SMILES) | EC50 (RXR-VDR heterodimer) | EC50 (VDR) | EC50 (rat osteocalcin promoter) | IC50 (KERtr cells) | IC50 (IL-10) | Mouse Hypercal (DBF mice [1]) |
| --- | --- | --- | --- | --- | --- | --- | --- |
|  | CCC(CC)(c1ccc(OCC(=O)C(C)(C)C)c(C)c1)c1cc2cc(C(=O)NCC(=O)O)ccc2s1 [Ex 19, [(2-{1-[4-(3,3-Dimethyl-2-oxo-butoxy)-3-methyl-phenyl]-1-ethyl-propyl}-benzo[b]thiophene-5-carbonyl)-amino]-acetic acid] | 114 nM and 21 nM | 815 nM | 4.7 nM | 16 nM | 149 nM | >300 µg/kg/day |
|  | CCC(CC)(c1ccc(OCC(=O)C(C)(C)C)c(C)c1)c1cc2ccc(C(=O)NCC(=O)O)cc2s1 [Ex. 11, [(2-{1-[4-(3,3-dimethyl-2-oxo-butoxy)-3-methyl-phenyl]-1-ethyl-propyl}-benzo[b]thiophene-6-carbonyl)-amino]-acetic acid] | 45 nM | 299 nM | 0.2 nM | 2 nM | 10 nM | >300 µg/kg/day |
| 0.06 µg/kg/day | C=C1/C(=C\C=C2/CCC[C@]3(C)[C@@H]([C@H](C)CCCC(C)(C)O)CC[C@@H]23)C[C@@H](O)C[C@@H]1O [AA, 1α,25-dihydroxyvitamin D3] |  |  |  |  |  |  |
